1 compound from patent US20240224995A1, “USE OF CLETHODIM FOR INSECT CONTROL” (SYNGENTA CROP PROTECTION AG, priority 2021, published 2024) can be followed below.

Holding throughout (format): in vivo
The test system of experiment [1] is Bemisia tabaci (Silverleaf whitefly). Kind of experiment: Curative control of Bemisia tabaci second nymph stage (N2) on French beans, spray application. From the text: (§1) Examples 1 to 3 describe biological tests relating to the curative and preventative control of a series of insects with the spray application of dilutions of a formulation containing clethodim as sole active ingredient (ai) (EC240 formulation (SELECT®)) in combination with OCHIMAR adjuvant (Syngenta—alkyl ester of phosphoric acid (752 g/L EC) formulation) to bean or cabbage plants infested with Bemisia tabaci, Frankliniella occidentalis or Myzus persicae (four replicates). The testing protocols and insect control effects are shown below.
Curative control of Bemisia tabaci (Silverleaf whitefly), second nymph stage (N2), treated on French beans (BBCH12):
All treatments (including check) were applied with 250 ml adjuvant (OCHIMA®) per hectare.

In experiment [2] the test system is Frankliniella occidentalis (Western flower thrips). As to the kind of experiment: Frankliniella occidentalis mixed aged population infested on French beans three hours after treatment, plant damage evaluation. Particulars: 60 g ai/ha; plant damage by feeding on leaf tissue.
Source text: as §1
Frankliniella occidentalis (Western flower thrips), mixed aged population, infested on French beans (BBCH12) three hours after treatment.
All treatments (including check) were applied with 250 mL adjuvant (OCHIMA®) per hectare. The above table relates to an evaluation of plant damage caused by Western flower thrips feeding on leaf tissue.

The subject of experiment [3] is Myzus persicae (Green peach aphids). Kind of experiment: Curative control of Myzus persicae mixed aged population on Chinese cabbage, spray application. To be noted: 120 and 60 g ai/ha.
Source text: as §1
Curative control of Myzus persicae (Green peach aphids), mixed aged population, on Chinese cabbage (BBCH19).
All adjuvant containing treatments were applied with 250 mL adjuvant (OCHIMA®) per hectare.

Take `CCSC(C)CC1CC(=O)C(/C(CC)=N\OC/C=C/Cl)=C(O)C1` (racemic) [clethodim, (5RS)-2-[(1EZ)-N-{[(2E)-3-chloroallyl]oxy}propanimidoyl]-5-[(2RS)-2-(ethylthio)propyl]-3-hydroxycyclohex-2-en-1-one]: in experiment [1] (data in Tables 1 to 3), the “efficacy against whiteflies compared to thrips or aphids” value is “surprising selective efficacy”. For the same compound, in experiment [1] (two ai application rates (120 and 60 g ai/ha)), the “control effect against whiteflies against the check treatment” value is recorded as “significant control effect”. The “control effect against Western flower thrips against the check treatment” value in experiment [2] is on record as “at best minor”. In experiment [3], the “control effect against aphids against the check treatment” value is “at best minor”.
